Measurements from PubChem BioAssay (NCI).
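All cell lines were grown in 96-well plates and treated with compound for 48 hours. TGI is the concentration that stops growth completely.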

Key:
Assay in all cases: NCI-60 cell line screen, 48 h
[1] = test system: LOX IMVI melanoma
[2] = test system: HL-60(TB) leukemia
[3] = test system: RXF 393 renal
[4] = test system: SK-OV-3 ovarian
[5] = test system: NCI-H522 lung
[6] = test system: LXFL 529 NSCLC
[7] = test system: ACHN renal
[8] = test system: DMS 273 small cell lung
[9] = test system: EKVX NSCLC
[10] = test system: SNB-19 CNS
[11] = test system: SW-620 colon
[12] = test system: U251 CNS
[13] = test system: UACC-62 melanoma
[14] = test system: TK-10 renal
[15] = test system: SK-MEL-5 melanoma
[16] = test system: MOLT-4 leukemia
[17] = test system: IGROV1 ovarian
[18] = test system: CAKI-1 renal
[19] = test system: OVCAR-3 ovarian
[20] = test system: UO-31 renal
[21] = test system: DLD-1 colon
[22] = test system: DMS 114 small cell lung
[23] = test system: SN12C renal
[24] = test system: OVCAR-8 ovarian
[25] = test system: OVCAR-4 ovarian
[26] = test system: NCI-H23 lung
[27] = test system: KM20L2 colon
[28] = test system: SR leukemia
[29] = test system: NCI-H226 lung
[30] = test system: A549 NSCLC
[31] = test system: SF-295 CNS
[32] = test system: SK-MEL-2 melanoma
[33] = test system: A498 renal
[34] = test system: 786-0 renal
[35] = test system: CCRF-CEM leukemia
[36] = test system: XF 498 CNS
[37] = test system: HT29 colon
[38] = test system: SNB-75 CNS
[39] = test system: SK-MEL-28 melanoma
[40] = test system: HCC-2998 colon
[41] = test system: SF-268 CNS
[42] = test system: UACC-257 melanoma
[43] = test system: SNB-78 CNS
[44] = test system: M19-MEL melanoma
[45] = test system: M14 melanoma
[46] = test system: K-562 leukemia
[47] = test system: SF-539 CNS
[48] = test system: HCT-15 colon
[49] = test system: RPMI-8226 leukemia
[50] = test system: MALME-3M melanoma
[51] = test system: HOP-92 NSCLC
[52] = test system: KM12 colon
[53] = test system: NCI-H460 lung
[54] = test system: COLO 205 colon
[55] = test system: HCT-116 colon
[56] = test system: HOP-62 NSCLC
[57] = test system: HOP-18 NSCLC
[58] = test system: OVCAR-5 ovarian

Question: For `O=c1[nH]c(=S)[nH]c(O)c1/C=C1\C=CC=N1`, which TGI [1] is on record?
Answer: 46.2 µM

Question: And the TGI [2]?
Answer: > 100 µM

Question: What about the TGI [3] of the same compound?
Answer: 9.6 µM

Question: What about the TGI [4] of the same compound?
Answer: > 100 µM

Question: What about the TGI [5] of the same compound?
Answer: 3.59 µM

Question: What about the TGI [6] of the same compound?
Answer: 21.9 µM

Question: What about the TGI [7] of the same compound?
Answer: 29.6 µM

Question: And the TGI [8]?
Answer: 25.3 µM

Question: And the TGI [9]?
Answer: 56.7 µM

Question: What about the TGI [10] of the same compound?
Answer: > 100 µM

Question: What about the TGI [11] of the same compound?
Answer: 23.5 µM

Question: And the TGI [12]?
Answer: 89.2 µM

Question: And the TGI [13]?
Answer: 35.6 µM

Question: And the TGI [14]?
Answer: 37.7 µM

Question: What about the TGI [15] of the same compound?
Answer: > 100 µM

Question: What about the TGI [16] of the same compound?
Answer: 44.3 µM

Question: What about the TGI [17] of the same compound?
Answer: 65 µM

Question: And the TGI [18]?
Answer: 25.6 µM

Question: And the TGI [19]?
Answer: 21.8 µM

Question: And the TGI [20]?
Answer: 31.2 µM

Question: What about the TGI [21] of the same compound?
Answer: 22 µM

Question: What about the TGI [22] of the same compound?
Answer: 23.3 µM

Question: And the TGI [23]?
Answer: 22.5 µM

Question: What about the TGI [24] of the same compound?
Answer: 17.9 µM

Question: What about the TGI [25] of the same compound?
Answer: 32 µM

Question: And the TGI [26]?
Answer: 40 µM

Question: What about the TGI [27] of the same compound?
Answer: 41.1 µM

Question: And the TGI [28]?
Answer: 18 µM

Question: And the TGI [29]?
Answer: 33.4 µM

Question: What about the TGI [30] of the same compound?
Answer: > 100 µM

Question: What about the TGI [31] of the same compound?
Answer: 82.4 µM

Question: What about the TGI [32] of the same compound?
Answer: 51.4 µM

Question: And the TGI [33]?
Answer: 84.3 µM

Question: What about the TGI [34] of the same compound?
Answer: 24.8 µM

Question: And the TGI [35]?
Answer: 75.5 µM

Question: What about the TGI [36] of the same compound?
Answer: 32.3 µM

Question: What about the TGI [37] of the same compound?
Answer: 54.2 µM

Question: And the TGI [38]?
Answer: 42.5 µM

Question: What about the TGI [39] of the same compound?
Answer: 48.5 µM

Question: What about the TGI [40] of the same compound?
Answer: 25 µM

Question: What about the TGI [41] of the same compound?
Answer: 55.1 µM

Question: What about the TGI [42] of the same compound?
Answer: 72.4 µM

Question: What about the TGI [43] of the same compound?
Answer: 67.4 µM

Question: And the TGI [44]?
Answer: > 100 µM

Question: And the TGI [45]?
Answer: 54.8 µM

Question: What about the TGI [46] of the same compound?
Answer: > 100 µM

Question: And the TGI [47]?
Answer: 40.5 µM

Question: What about the TGI [48] of the same compound?
Answer: 14.8 µM

Question: And the TGI [49]?
Answer: 23 µM

Question: And the TGI [50]?
Answer: 34.4 µM

Question: And the TGI [51]?
Answer: 36.1 µM

Question: And the TGI [52]?
Answer: 39.6 µM

Question: And the TGI [53]?
Answer: 65.5 µM

Question: And the TGI [54]?
Answer: 32 µM

Question: What about the TGI [55] of the same compound?
Answer: 18.7 µM

Question: And the TGI [56]?
Answer: 97.6 µM

Question: And the TGI [57]?
Answer: 85.7 µM

Question: And the TGI [58]?
Answer: 47 µM

Question: Which results are given for `CCN(CC)CCCNC(=O)Cc1ccccc1Nc1c(Cl)cccc1Cl`?
Answer: TGI [1]: 25.6 µM; TGI [2]: 27.5 µM; TGI [3]: 30.6 µM; TGI [4]: 29.1 µM; TGI [6]: 21.3 µM; TGI [7]: 20.8 µM; TGI [8]: 28.1 µM; TGI [9]: 28.2 µM; TGI [10]: 31.8 µM; TGI [11]: 32.8 µM; TGI [12]: 25.7 µM; TGI [13]: 29.5 µM; TGI [14]: 26.8 µM; TGI [15]: 14.1 µM; TGI [16]: 28 µM; TGI [17]: 36.5 µM; TGI [19]: 31.5 µM; TGI [20]: 23.8 µM; TGI [21]: 28.3 µM; TGI [22]: 27.6 µM; TGI [23]: 28.5 µM; TGI [24]: 31.9 µM; TGI [25]: 33.1 µM; TGI [26]: 32.2 µM; TGI [27]: 12.4 µM; TGI [28]: 26 µM; TGI [29]: 38.5 µM; TGI [30]: 36.2 µM; TGI [31]: 32.7 µM; TGI [34]: 21.8 µM; TGI [35]: 28.2 µM; TGI [36]: 20.8 µM; TGI [37]: 17.6 µM; TGI [38]: 21.8 µM; TGI [39]: 25.4 µM; TGI [40]: 11.5 µM; TGI [41]: 31.2 µM; TGI [42]: 13.2 µM; TGI [43]: 32.8 µM; TGI [44]: 17.4 µM; TGI [45]: 7.88 µM; TGI [46]: 21.6 µM; TGI [47]: 28.7 µM; TGI [48]: 29.1 µM; TGI [49]: 29.1 µM; TGI [52]: 39.3 µM; TGI [54]: 28.3 µM; TGI [55]: 27.2 µM; TGI [56]: 29.9 µM; TGI [58]: 23.5 µM
